Experimental data taken from patent publication US20260356860A1, “2-SUBSTITUTED 3,4A,5,7,8,8A-HEXAHYDRO-4H-THIOPYRANO[4,3-DJPYRIMIDIN-4-ONES FOR WOUND TREATMENT” (priority 2022, published 2026).
“And” between values parts separate entries of the source, which are not always exact repeats. Equal entries are not always repeated.

Columns and labels:
bacteria = test: Bacteriostasis: growth inhibition over the panel of bacteria; type: cell-based; conditions: 72 h
Protocol: (§1) In order to assess the log reduction capabilities of compounds of Formula (1), testing was performed on organisms that are found in acute and chronic wounds. Triplicate tubes were prepared for each bacteria using 50 μL of inoculum (about 1×10^6 CFU/mL) which was added to 450 μL of compound solution (compound of Formula (I)) (or 100 μL of inoculum in 900 μL of compound solution), resulting in a final inoculum of about 1×10^5 CFU/mL, as shown in Table 4.
(§2) Tubes were mixed with a vortex and then incubated in a shaking incubator at 175 RPM and 35° C. to 37° C.
(§3) For Compounds 1, 7, 8, 10, and 18 in Tables 6, 7-A, 7-B, 8, 9, 10-A, 10-B, and 11: The compound solutions were prepared with compound (30 mg), polysorbate 20 (1.6 mL), butylene glycol (1.6 mL), phosphatidyl choline (0.66 g), ethanol (1.6 mL), hydroxypropyl cellulose (0.26 g), and ultra pure water (24.9 mL).
(§4) Testing was performed at two time points: 18 to 24 hours, and […].

[1] = test system: A. baumannii (derived from ATCC ® 19606 ™); test: Bacteriostasis, log reduction; type: cell-based; conditions: A. baumannii ATCC 19606
Protocol: as §1, §2
(§5) Positive control in Tables 5a and 5b was 1 mL of 0.89% saline with 1 mL of the 1×10^6 CFU/mL of the organism.
as §3
(§6) XAV939 Control in Table X1 was XAV939 (30 mg), polysorbate 20 (1.6 mL), butylene glycol (1.6 mL), phosphatidyl choline (0.66 g), ethanol (1.6 mL), ultra pure water (24.9 mL), and hydroxypropyl cellulose (0.26 g).
(§7) GO-HA Control in Table X2 was GO-HA (30 mg), polysorbate 20 (1.6 mL), butylene glycol (1.6 mL), phosphatidyl choline (0.66 g), ethanol (1.6 mL), ultra pure water (24.9 mL), and hydroxypropyl cellulose (0.26 g).
(§8) For Compound 18+GO-HA in Tables 6 and X4: compound 18 (45 mg), GO-HA (45 mg), polysorbate 20 (2 mL), butylene glycol (2 mL), phosphotidyl choline (0.5 g), ethanol (2 mL), hydroxypropyl cellulose (0.40 g), and ultra pure water (40 mL).
(§9) For XAV939+GO-HA in Tables 6 and X3-A, and X3-B: XAV939 (45 mg), GO-HA (45 mg), butylene glycol (2 mL), polysorbate 20 (2 mL), phosphotidyl choline (0.5 g), ethanol (2 mL), hydroxypropyl cellulose (0.40 g), and ultra pure water (40 mL).
as §4

[2] = test system: E. coli (derived from ATCC ® 8739 ™); test: Bacteriostasis, log reduction; type: cell-based; conditions: E. coli ATCC 8739
Protocol: as §1, §2, §5, §3, §6, §7, §8, §9, §4

[3] = test system: S. epidermidis (derived from ATCC ® 14990 ™); test: Bacteriostasis, log reduction; type: cell-based; conditions: S. epidermidis ATCC 14990
Protocol: as §1, §2, §5, §3, §6, §7, §8, §9, §4

new porcine skin [4] = test: Elasticity of healed wound; type: in vivo; conditions: day 21; for Elasticity, Mean / Elasticity, individual values: topical
Protocol: (§10) Additional tests were performed including elasticity (Table 12); max force (Table 13); tensile strength (strain) (Table 14); energy peak (Table 15); rete-ridge formation; and collagen organization (plane polarized light) (FIG. 24) of the healed wound sites, described as follows.
(§11) A is saline (control), B is serum formulation (vehicle), C is GO-HA (vehicle), D is Compound 1; E is Compound 1+GO-HA; F is Compound 8; G is Compound 8+GO-HA; H is Compound 10; and J is Compound 10+GO-HA.
Elasticity (N/mm) is the ability of a material to return to its original shape after stress has been removed. All compounds of Formula (I) tested with or without GO-HA ranged from 33% to 99% improvement in elasticity compared to the saline control.

new porcine skin [5] = test: Max force of healed wound; type: in vivo; conditions: day 21; for Max Force / Max Force, Mean: topical
Protocol: as §10
A is saline (control), B is serum formulation control (vehicle), C is GO-HA (vehicle), D is Compound 1; E is Compound 1+GO-HA; F is Compound 8; G is Compound 8+GO-HA; H is Compound 10; and J is Compound 10+GO-HA. Descriptions for saline control, serum formulation control, and GO-HA are as provided above for FIG. 19.
Max Force (N) is the average force required to break/rupture a material. All compounds of Formula (I) tested with or without GO-HA ranged from 18% to 68% improvement in max force compared to the saline control.

new porcine skin [6] = test: Strain (tensile strength) of healed wound; type: in vivo; conditions: day 21; for Strain (tensile strength) / Strain (tensile strength), Mean: topical
Protocol: as §10, §11
Strain (tensile strength) (N/mm^2) is the force required to pull/stretch a material to a breaking point. A 20% improvement over saline considered good. All compounds of Formula (I) tested with or without GO-HA ranged from 36% to 142% improvement in tensile strength compared to the saline control.

[7] = test system: HEK293 SuperTOPFlash reporter cells, Wnt promoter; test: Wnt inhibition in HEK293 SuperTOPFlash reporter cells, DMSO vs aqueous GO-HA (FIGS. 1-3); type: cell-based
Protocol: In order to determine the effect of the compounds of Formula (I) on Wnt inhibition, an invitro assay using HEK293 SuperTOPFlash reporter cells, with the Wnt promoter driving a luciferase reporter gene, were utilized. 40,000 HEK293 SuperTOPFlash reporter cells were seeded, per well, in a 48 well plate for 24 hours, prior to administration of serial dilutions of the compounds of Formula (I) to individual wells. Serial dilutions ranging from […] to 1 nM of compounds of Formula (I) were added with or without 50 ng/mL Wnt3α (Time Biosciences) and allowed to incubate with the reporter cells for 18 hours. Reporter cells with no treatment were used as negative control.

SMILES	number of bacteria with inhibited growth (bacteria; test 1)	Average result ([1]; 24 h)	Log Reduction ([1]; 24 h)	Log Value ([1]; 24 h)	Average result ([1]; 72 h)	Log Reduction ([1]; 72 h)	Log Value ([1]; 72 h)	Average result ([2]; 24 h)	Log Reduction ([2]; 24 h)	Log Value ([2]; 24 h)	Average result ([2]; 72 h)	Log Reduction ([2]; 72 h)	Log Value ([2]; 72 h)	Average result ([3]; 24 h)	Log Reduction ([3]; 24 h)	Log Value ([3]; 24 h)	Average result ([3]; 72 h)	Log Reduction ([3]; 72 h)	Log Value ([3]; 72 h)	Elasticity, Mean (new porcine skin [4])	also measured
O=c1[nH]c(-c2ccc(-c3ccc(B(O)O)cc3)cc2)nc2c1CSCC2 [Compound 10, (4′-(4-oxo-3,5,7,8-tetrahydro-4H-thiopyrano[4,3-d]pyrimidin-2-yl)-[1,1′-biphenyl]-4-yl)boronic acid]	7 of 7	<200	>3.0	<2.3	<200	>3.0	<2.3	<200	>3.2	<2.1	6.0 × 10^2	2.5	2.8	1.1 × 10^4	0.8	4.0	3.3 × 10^2	2.3	2.5	53.682 N/mm	number of bacteria with inhibited growth (bacteria; test 2): 7 of 7; improvement in elasticity compared to the saline control (new porcine skin [4]): 91%; Elasticity, individual values (new porcine skin [4]): 43.004 N/mm and 52.568 N/mm and 74.191 N/mm and 44.962 N/mm; improvement in max force compared to the saline control (new porcine skin [5]): 68%; Max Force (new porcine skin [5]; individual value 1): 406.879 N; Max Force (new porcine skin [5]; individual value 2): 474.825 N; Max Force (new porcine skin [5]; individual value 3): 344.860 N; Max Force (new porcine skin [5]; individual value 4): 335.864 N; Max Force, Mean (new porcine skin [5]): 390.607 N; improvement in tensile strength (strain) compared to the saline control (new porcine skin [6]): 105%; Strain (tensile strength) (new porcine skin [6]; individual value 1): 6.792 N/mm^2; Strain (tensile strength) (new porcine skin [6]; individual value 2): 11.592 N/mm^2; Strain (tensile strength) (new porcine skin [6]; individual value 3): 5.862 N/mm^2; Strain (tensile strength) (new porcine skin [6]; individual value 4): 5.506 N/mm^2; Strain (tensile strength), Mean (new porcine skin [6]): 7.438 N/mm^2
COC(=O)NCCOC(C)(C)c1ccc(-c2nc3c(c(=O)[nH]2)CSCC3)cc1 [Compound 18, methyl (2-((2-(4-(4-oxo-3,5,7,8-tetrahydro-4H-thiopyrano[4,3-d]pyrimidin-2-yl)phenyl)propan-2-yl)oxy)ethyl)carbamate]	14 of 15	<200	>3.0	<2.3	<200	>3.0	<2.3	5.3 × 10^2	1.8	2.7	<200	>2.2	<2.3	8.0 × 10^2	2.0	2.9	<200	>2.6	<2.3	–	–
O=c1[nH]c(-c2ccc(B(O)O)cc2)nc2c1CSCC2 [Compound 1, (4-(4-oxo-3,5,7,8-tetrahydro-4H-thiopyrano[4,3-d]pyrimidin-2-yl)phenyl)boronic acid]	6 of 7	<200	>3.0	<2.3	<200	>3.0	<2.3	1.3 × 10^4	1.2	4.1	<200	>3.0	<2.3	3.1 × 10^5	No	5.5	<200	>2.5	<2.3	37.628 N/mm	IC50 [7]: 2000 nM; number of bacteria with inhibited growth (bacteria; test 2): 7 of 7; Elasticity, individual values (new porcine skin [4]): 39.593 N/mm and 27.299 N/mm and 33.002 N/mm and 50.617 N/mm; Max Force (new porcine skin [5]; individual value 1): 290.184 N; Max Force (new porcine skin [5]; individual value 2): 278.868 N; Max Force (new porcine skin [5]; individual value 3): 250.554 N; Max Force (new porcine skin [5]; individual value 4): 273.195 N; Max Force, Mean (new porcine skin [5]): 273.200 N; Strain (tensile strength) (new porcine skin [6]; individual value 1): 2.568 N/mm^2; Strain (tensile strength) (new porcine skin [6]; individual value 2): 3.906 N/mm^2; Strain (tensile strength) (new porcine skin [6]; individual value 3): 10.226 N/mm^2; Strain (tensile strength) (new porcine skin [6]; individual value 4): 5.738 N/mm^2; Strain (tensile strength), Mean (new porcine skin [6]): 5.609 N/mm^2
CC(C)(OCCO)c1ccc(-c2nc3c(c(=O)[nH]2)CSCC3)cc1 [Compound 8, 2-(4-(2-(2-hydroxyethoxy)propan-2-yl)phenyl)-3,5,7,8-tetrahydro-4H-thiopyrano[4,3-d]pyrimidin-4-one]	–	–	–	–	–	–	–	3.1 × 10^3	1.8	3.5	6.8 × 10^4	0.5	4.8	6.0 × 10^2	2.0	2.8	<200	>2.5	<2.3	40.080 N/mm	IC50 [7]: 5 to 10 nM; number of bacteria with inhibited growth (bacteria): 5 of 7; Elasticity, individual values (new porcine skin [4]): 47.748 N/mm and 22.23 N/mm and 55.607 N/mm and 46.485 N/mm and 28.331 N/mm; Max Force (new porcine skin [5]; individual value 1): 404.094 N; Max Force (new porcine skin [5]; individual value 2): 488.094 N; Max Force (new porcine skin [5]; individual value 3): 273.110 N; Max Force (new porcine skin [5]; individual value 4): 330.413 N; Max Force (new porcine skin [5]; individual value 5): 169.61 N; Max Force, Mean (new porcine skin [5]): 333.196 N; Strain (tensile strength) (new porcine skin [6]; individual value 1): 7.640 N/mm^2; Strain (tensile strength) (new porcine skin [6]; individual value 2): 4.427 N/mm^2; Strain (tensile strength) (new porcine skin [6]; individual value 3): 2.939 N/mm^2; Strain (tensile strength) (new porcine skin [6]; individual value 4): 6.900 N/mm^2; Strain (tensile strength) (new porcine skin [6]; individual value 5): 2.913 N/mm^2; Strain (tensile strength), Mean (new porcine skin [6]): 4.964 N/mm^2
O=c1[nH]c(-c2ccc(-c3ccc(Br)nc3)cc2)nc2c1CSCC2 [Compound 7, 2-(4-(6-bromopyridin-3-yl)phenyl)-3,5,7,8-tetrahydro-4H-thiopyrano [4,3-d]pyrimidin-4-one]	–	–	–	–	–	–	–	7.9 × 10^4	0.4	4.9	>3.6 × 10^6	No	>6.6	2.8 × 10^4	0.4	4.4	<200	>2.5	<2.3	–	IC50 [7]: 5 to 10 nM; number of bacteria with inhibited growth (bacteria): 4 of 7
